Patent US20110262508A1, “ANTIMICROBIAL COMPOSITIONS, FORMULATIONS AND USES THEREOF” (priority 2007, published 2011)
Values after ≈ are worked out from the molar mass of the structure shown. Where two headings read alike, the source gives them in different places. Peptide text beside a SMILES is read from it. * marks the point of attachment. Biotin = O=C1N[C@H]2[C@H](CS[C@H]2CCCCC(=O)*)N1

What was measured:
A. baumannii = format: cell-based
Summary of the method: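 Laboratory strains and 50 clinical isolates of A. baumannii were tested by CLSI broth microdilution, with serially diluted peptide (0.1-64 μg) and about 1×10^5 C.F.U. per well, incubated aerobically overnight at 35±2° C. MIC was read visually. MBC came from subculturing clear wells, as ≥99.9% inoculum reduction.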

human RBC = experiment: Hemolysis of RBC; format: cell-based
Procedure: Varying amounts of peptide were incubated with the washed RBC for one hour at room temperature. Intact cells were pelleted by gentle centrifugation, and hemolysis of each sample was determined by absorption measurement at 450 nm. A positive control sample consisted of RBC lysed by the addition of 0.1% Triton, for which hemolysis was also determined by absorption measurement at 450 nm. Percentages of lysed RBC incubated with peptide were then calculated by the ratio of absorbances at 450 nm for the sample relative to the absorbance at 450 nm of the positive control sample. The MHC10 value was calculated as the minimum peptide concentration to induce 10% cell lysis.

[1] = Cytotoxicity against Jurkat cells (CellTiter Blue); format: cell-based, human; details: human
Procedure: (§1) The cytotoxicities of selected peptides against human T-lymphocytes, in particular Jurkat cells, was determined by growing 100 uL Jurkat cells in RPMI (approx. 5×10^5 cells/ml density) overnight at 37° C. under 5% CO2 atmosphere, in microtiter plate wells, in the presence and absence of peptides. Control reactions either lacked peptide (negative cytotoxicity control), or contained a buffer to completely lyse Jurkat cells (positive cytotoxicity control). The viabilities of cells were then determined by addition of 20 uL CellTiter Blue dye (Promega) to each well, and incubation of cells for a further 3 hrs at 37° C. Fluorescence values were measured for 1 sec at 540 nm/615 nm, and expressed relative to fluorescence values for negative and positive cytotoxicity control samples. Comparison with a fully lysed control allowed the calculation of a percentage killing for each peptide concentration. The MCC10 value was calculated as the minimum peptide concentration required to induce 10% cytotoxicity.

Jurkat cells = experiment: Cytotoxicity against Jurkat cells (CellTiter Blue); format: cell-based, human
Procedure: as §1

[2] = tested on: S. typhimurium strain AroA; format: cell-based
Procedure: Synthetic peptides were tested for their ability to inhibit bacterial growth in liquid culture. […] 19606, Acinetobacter spp. ATCC 17903, Acinetobacter spp. ATCC 19004, Escherichia coli strain BL21, S. aureus, S. typhimurium strain AroA, P. aeruginosa or P. pneumotropica. After 5-6 hours of shaking at 37° C., growth was measured as absorbance at 595 nm. As a control, cultures were grown in the presence of 0.1% acetonitrile (i.e., the concentration present in 10 μM peptide).

[3] = tested on: A. baumannii ATCC 19606, Acinetobacter spp. ATCC 17903, Acinetobacter spp. ATCC 19004, E. coli BL21, S. aureus, S. typhimurium AroA, P. aeruginosa, P. …; experiment: Antibacterial spectrum over the serial dilution panel (Table 6); format: cell-based; details: summary of Table 6
Summary of the method: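 Peptides at about 5–10 μM were added to liquid media freshly inoculated with each bacterial strain and shaken 5-6 h at 37° C. Growth read as absorbance at 595 nm; control cultures contained 0.1% acetonitrile.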

SMILES | MIC (μM) for non-amidated Peptide (A. baumannii) | MHC10 (human RBC) | cytotoxicity at 12.5 μM [1] | cytotoxicity at 25 μM [1] | cytotoxicity at 50 μM [1] | MCC10 (Jurkat cells) | % inhibition of bacterial growth by peptide ([2]; 15 μM peptide) | % inhibition of bacterial growth by peptide ([2]; 20 μM peptide) | also measured
CC[C@H](C)[C@H](NC(=O)[C@H](Cc1ccccc1)NC(=O)[C@H](CC(C)C)NC(=O)[C@H](CCC(N)=O)NC(=O)[C@H](CCCNC(=N)N)NC(=O)[C@H](Cc1ccccc1)NC(=O)[C@H](Cc1ccc(O)cc1)NC(=O)[C@H](CC(C)C)NC(=O)[C@H](Cc1c[nH]c2ccccc12)NC(=O)[C@H](Cc1ccccc1)NC(=O)[C@H](CCCNC(=N)N)NC(=O)[C@H](CCCNC(=N)N)NC(=O)[C@H](CO)NC(=O)[C@H](CC(=O)O)NC(=O)CCCC[C@@H]1SC[C@@H]2NC(=O)N[C@@H]21)C(=O)N[C@@H](Cc1c[nH]cn1)C(=O)N[C@@H](CC(N)=O)C(=O)N1CCC[C@H]1C(=O)N[C@@H](CCCCN)C(=O)N[C@H](C(=O)N1CCC[C@H]1C(=O)N[C@H](C(=O)N[C@H](C(=O)N1CCC[C@H]1C(=O)O)[C@@H](C)O)[C@@H](C)CC)[C@@H](C)O [Ac476] (Biotin-DSRRFWLYFRQLFIHNPKTPITP-OH) | 5 µM | 50 µM | 12% | 18% | 44% | 10 µM | – | – | –
CC[C@H](C)[C@H](NC(=O)[C@H](CCC(N)=O)NC(=O)[C@H](CCCNC(=N)N)NC(=O)[C@@H](NC(=O)[C@@H](NC(=O)[C@@H]1CCCN1C(=O)[C@@H]1CCCN1C(=O)[C@H](CCSC)NC(=O)[C@H](CCCNC(=N)N)NC(=O)[C@H](CC(N)=O)NC(=O)[C@@H](NC(=O)CNC(=O)[C@H](Cc1c[nH]c2ccccc12)NC(=O)CCCC[C@@H]1SC[C@@H]2NC(=O)N[C@@H]21)C(C)C)C(C)C)C(C)C)C(=O)N[C@@H](CC(C)C)C(=O)N[C@@H](CCCNC(=N)N)C(=O)N[C@@H](CO)C(=O)N[C@@H](CCC(=O)O)C(=O)N[C@@H](Cc1c[nH]c2ccccc12)C(=O)N[C@@H](CCCNC(=N)N)C(=O)N[C@@H](CC(N)=O)C(=O)N[C@@H](Cc1c[nH]c2ccccc12)C(=O)N[C@@H](CCCNC(=N)N)C(=O)N[C@@H](CCCCN)C(=O)O [Ac436] (Biotin-WGVNRMPPVVRQILRSEWRNWRK-OH) | 10 µM | 75 µM | 6% | 10% | 32% | 25 µM | – | – | –
CC[C@H](C)[C@H](NC(=O)[C@H](C)NC(=O)[C@H](CC(N)=O)NC(=O)[C@H](CS)NC(=O)[C@H](CS)NC(=O)CCCC[C@@H]1SC[C@@H]2NC(=O)N[C@@H]21)C(=O)N[C@H](C(=O)N[C@@H](Cc1ccc(O)cc1)C(=O)N[C@@H](CCCCN)C(=O)N[C@@H](Cc1c[nH]c2ccccc12)C(=O)N[C@H](C(=O)N[C@@H](CC(C)C)C(=O)N[C@@H](Cc1c[nH]cn1)C(=O)N[C@@H](Cc1ccccc1)C(=O)N[C@@H](Cc1ccccc1)C(=O)N[C@@H](Cc1c[nH]c2ccccc12)C(=O)N[C@@H](CCCNC(=N)N)C(=O)N[C@@H](CCCCN)C(=O)N[C@@H](CCCNC(=N)N)C(=O)N[C@@H](C)C(=O)N[C@@H](Cc1c[nH]c2ccccc12)C(=O)N[C@@H](Cc1ccc(O)cc1)C(=O)N[C@@H](CS)C(=O)N[C@@H](Cc1ccccc1)C(=O)O)[C@@H](C)CC)[C@@H](C)CC [Ac228] (Biotin-CCNAIIYKWILHFFWRKRAWYCF-OH; N-terminus and C-terminus assumed) | 20 to 25 µM | ~10 µM | 0% | 5% | 29% | 42 µM | – | – | MIC (A. baumannii): 25 µM (≈ 82.4 µg/mL); bactericidal or bacteriostatic against A. baumannii (A. baumannii): bacteriostatic; MBC (μM) (A. baumannii; A. baumannii (Table 8), reduces original inoculum by at least about 99.9%): bacteriostat; haemolytic activity (in words) (human RBC): reproducibly higher haemolytic activities; Percent hemolysis at 5 μM peptide (human RBC; red cells of human, 5): 2.6%; Percent hemolysis at 10 μM peptide (human RBC; red cells of human, 10): 11.0%; Percent hemolysis at 20 μM peptide (human RBC; red cells of human, 20): 9.9%; Percent hemolysis at 40 μM peptide (human RBC; red cells of human, 40): 22.9%; Percent hemolysis at 60 μM peptide (human RBC; red cells of human, 60): 40.1%; Percent hemolysis at 80 μM peptide (human RBC; red cells of human, 80): 80.4%; Percent hemolysis at 100 μM peptide (human RBC; red cells of human, 1 h, 100): 97.1%
CC(C)C[C@H](NC(=O)[C@H](Cc1ccccc1)NC(=O)CNC(=O)[C@H](CO)NC(=O)[C@@H]1CCCN1C(=O)[C@H](Cc1c[nH]c2ccccc12)NC(=O)[C@@H](NC(=O)[C@@H]1CCCN1C(=O)[C@H](CCCNC(=N)N)NC(=O)[C@@H](NC(=O)[C@H](C)NC(=O)[C@H](CS)NC(=O)[C@H](CCCNC(=N)N)NC(=O)[C@H](CO)NC(=O)[C@H](CO)NC(=O)[C@H](C)NC(=O)[C@H](C)NC(=O)[C@H](CCCNC(=N)N)NC(=O)[C@H](CO)NC(=O)[C@H](CO)NC(=O)[C@H](Cc1c[nH]cn1)NC(=O)[C@@H]1CCCN1C(=O)CCCC[C@@H]1SC[C@@H]2NC(=O)N[C@@H]21)C(C)C)C(C)C)C(=O)N[C@@H](CCCNC(=N)N)C(=O)O [Ac327] (Biotin-PHSSRAASSRCAVRPVWPSGFLR-OH) | 20 µM | 30 µM | 20% | 31% | 1% | 8 µM | – | – | –
CC[C@H](C)[C@H](NC(=O)[C@H](CCCCN)NC(=O)[C@@H](NC(=O)[C@H](CCCNC(=N)N)NC(=O)[C@H](CO)NC(=O)[C@H](Cc1ccccc1)NC(=O)[C@H](CS)NC(=O)[C@H](CC(N)=O)NC(=O)[C@@H]1CCCN1C(=O)[C@H](CC(=O)O)NC(=O)CN)C(C)C)C(=O)N[C@@H](CC(C)C)C(=O)N[C@@H](C)C(=O)N[C@@H](CS)C(=O)O [Ac96] (H-GDPNCFSRVKILAC-OH) | – | – | – | – | – | – | 6% | 0% | % inhibition of bacterial growth by peptide ([2]; 12.5 μM peptide): 0%; % inhibition of bacterial growth by peptide ([2]; 17.5 μM peptide): 0%; selectively inhibited growth of Acinetobacter spp. ATCC 19004, and S. aureus [3]: selectively inhibited growth
CC[C@H](C)[C@H](NC(=O)[C@H](CS)NC(=O)[C@H](CCCCN)NC(=O)[C@H](CC(C)C)NC(=O)[C@H](Cc1ccccc1)NC(=O)[C@H](CC(=O)O)NC(=O)[C@H](CC(C)C)NC(=O)[C@H](CCCNC(=N)N)NC(=O)[C@H](CC(N)=O)NC(=O)[C@H](Cc1ccccc1)NC(=O)CNC(=O)[C@@H](NC(=O)[C@@H](NC(=O)[C@H](Cc1c[nH]cn1)NC(=O)[C@H](CC(N)=O)NC(=O)[C@@H](NC(=O)[C@@H](NC(=O)[C@H](Cc1c[nH]cn1)NC(=O)[C@H](Cc1ccccc1)NC(=O)[C@H](CO)NC(=O)[C@@H](NC(=O)[C@@H](N)Cc1ccccc1)C(C)C)[C@@H](C)O)[C@@H](C)O)C(C)C)[C@@H](C)CC)C(=O)N[C@@H](CO)C(=O)O [Ac3] (H-FVSFHTTNHVIGFNRLDFLKCIS-OH; N-terminus and C-terminus assumed) | – | – | – | – | – | – | 6% | 18% | % inhibition of bacterial growth by peptide ([2]; 5 μM peptide): 2%; % inhibition of bacterial growth by peptide ([2]; 10 μM peptide): 2%; selectively inhibited growth of A. baumannii ATCC Accession No. 19606, Acinetobacter spp. ATCC 17903, Acinetobacter spp. ATCC 19004, and S. aureus [3]: selectively inhibited growth
C[C@H](NC(=O)[C@H](CO)NC(=O)[C@H](CCCNC(=N)N)NC(=O)CNC(=O)[C@H](CCCNC(=N)N)NC(=O)CNC(=O)[C@H](CO)NC(=O)[C@H](CO)NC(=O)[C@H](CCCNC(=N)N)NC(=O)CNC(=O)[C@@H]1CCCN1C(=O)[C@@H]1CCCN1C(=O)[C@H](CO)NC(=O)[C@H](CCCNC(=N)N)NC(=O)[C@@H]1CCCN1C(=O)[C@H](CO)NC(=O)[C@@H]1CCCN1C(=O)[C@@H](NC(=O)[C@H](CCCNC(=N)N)NC(=O)CNC(=O)[C@@H](N)Cc1c[nH]c2ccccc12)[C@@H](C)O)C(=O)N[C@@H](CO)C(=O)N[C@@H](CS)C(=O)O [Ac66] (H-WGRTPSPRSPPGRSSGRGRSASC-OH; N-terminus and C-terminus assumed) | – | – | – | – | – | – | 0% | 0% | % inhibition of bacterial growth by peptide ([2]; 12.5 μM peptide): 0%; % inhibition of bacterial growth by peptide ([2]; 17.5 μM peptide): 0%; selectively inhibited growth of Acinetobacter spp. ATCC 19004, and S. aureus [3]: selectively inhibited growth
